Measurements taken from patent US5326751A, “Enkephalin analogs” (Arizona Board of Regents on behalf of the University of …, priority 1992, dated 1994).
Bridge positions count the residues as written; N and C are the ends. Square brackets hold non-standard residues; d marks the D form. Peptide text beside a SMILES is read from it. Phe(4-NO2) = N[C@@H](Cc1ccc([N+](=O)[O-])cc1)C(=O)O; Phe(4-Br) = N[C@@H](Cc1ccc(Br)cc1)C(=O)O; Phe(4-Cl) = N[C@@H](Cc1ccc(Cl)cc1)C(=O)O; Phe(4-F) = N[C@@H](Cc1ccc(F)cc1)C(=O)O; Phe(4-I) = N[C@@H](Cc1ccc(I)cc1)C(=O)O; dPen = CC(C)(S)[C@@H](N)C(=O)O; dAbu = CC[C@@H](N)C(=O)O; Ac5c = NC1(C(=O)O)CCCC1; Abu = CC[C@H](N)C(=O)O

Tests used:
[1] = molecular target: guinea pig ileum (GPI), primarily mu-type opiate receptors (Cavia porcellus, UniProt P97266); experiment: guinea pig ileum (GPI) assay: inhibition of electrically induced muscle contractions; type: cell-based; parameters: inh in GPI: dose or concentration left out as unconfirmed; details: for IC50: guinea pig ileum, electrically stimulated contractions, read-out: IC50 (nM) ± S.E.E. GPI
Chain of guinea pig ileum (GPI), primarily mu-type opiate receptors (P97266 whole entry, looked up): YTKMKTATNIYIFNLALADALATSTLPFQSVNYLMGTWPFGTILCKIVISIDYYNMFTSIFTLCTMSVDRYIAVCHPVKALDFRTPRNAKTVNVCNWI
Procedure: The guinea pig ileum longitudinal muscle-myenteric plexus preparation was prepared following the method of Kosterlitz, et al. Brit. J. Pharmacol., 39, 398-413 (1970). Agonists were added to the tissue bath and remained in contact with the tissue for a maximum of three minutes.

[2] = molecular target: T1, mouse vas deferens (MVD), primarily delta-type opiate receptors (Mus musculus, UniProt P32300); experiment: mouse vas deferens (MVD) assay: inhibition of electrically induced muscle contractions; type: cell-based; details: for IC50: mouse vas deferens, electrically stimulated contractions, read-out: IC50 (nM) ± S.E.E. MVD
T1 construct: from tissue; host or cells: mouse vas deferens
T1 sequence (P32300 whole entry): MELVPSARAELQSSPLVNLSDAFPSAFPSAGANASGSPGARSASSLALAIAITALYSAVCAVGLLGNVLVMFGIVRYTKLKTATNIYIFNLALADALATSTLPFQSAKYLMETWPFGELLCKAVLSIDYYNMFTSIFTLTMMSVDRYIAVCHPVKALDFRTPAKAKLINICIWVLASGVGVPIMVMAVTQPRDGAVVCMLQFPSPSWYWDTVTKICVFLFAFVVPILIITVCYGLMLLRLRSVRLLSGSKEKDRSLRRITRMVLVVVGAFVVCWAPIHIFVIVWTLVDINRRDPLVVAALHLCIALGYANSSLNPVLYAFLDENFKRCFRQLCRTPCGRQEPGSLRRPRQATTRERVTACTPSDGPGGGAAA
Procedure: The MVD preparation contains primarily delta-type opiate receptors, with some kappa and mu receptors.
The mouse vas deferens was prepared following the method of Hughes, et al. cites Brit. J. Pharmacol., 53, 371-381 (1975). One pair of vasa deferentia was used in each experiment.

[3] = molecular target: T2, delta-type opioid receptors (Rattus norvegicus, UniProt P33533); experiment: displacement of [3H][p-Cl-Phe4]DPDPE in rat brain homogenate; type: binding; details: for IC50: rat brain homogenate, 1 nM radioligand, 25° C., 40 min, read-out: IC50 (nM) ± S.E.E. [3H] p-Cl-DPDPE
T2 construct: Whole brains with cerebellum removed were homogenized in 100 volumes of Tris-HCl buffer; from tissue; host or cells: rat brain (without cerebellum), washed homogenate
T2 sequence (P33533 whole entry): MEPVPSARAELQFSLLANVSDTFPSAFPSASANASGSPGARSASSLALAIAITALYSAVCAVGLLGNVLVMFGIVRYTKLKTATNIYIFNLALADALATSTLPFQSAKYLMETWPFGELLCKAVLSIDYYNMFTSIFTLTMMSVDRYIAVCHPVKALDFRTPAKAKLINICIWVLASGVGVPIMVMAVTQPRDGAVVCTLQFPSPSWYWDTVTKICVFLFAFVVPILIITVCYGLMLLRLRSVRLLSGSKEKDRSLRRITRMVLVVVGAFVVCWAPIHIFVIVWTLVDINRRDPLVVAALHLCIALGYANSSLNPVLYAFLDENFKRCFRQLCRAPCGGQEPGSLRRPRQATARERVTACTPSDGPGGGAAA
Procedure: (§1) The binding potencies of each compound for mu and delta receptors in rat brain extracts was determined by competition assays against radiolabelled compounds known to bind opioid receptors. […] The ability of a tested compound to displace tritiated ligands from their respective receptor molecules is a measure of the compound's binding potency for the receptor of the displaced ligand.
(§2) Brains from male Sprague-Dawley rats were rapidly removed following sacrifice. Whole brains with cerebellum removed were homogenized in 100 volumes of Tris-HCl buffer (pH 7.4 at 25°). Tissue homogenates were washed twice in the same buffer by centrifugation at 48,000 g for 10 min. Pellets were resuspended in the same buffer.
Total incubation volume was 2 ml. After 40 min., the mixture was rapidly filtered through Whatman GF/B glass fiber filters and washed 3 times with 5 ml of ice-cold buffer.
(§3) Filter-bound radioactivity was quantitated by liquid scintillation spectrophotometry with an efficiency of 46%. Radio-ligand displaced by 1 μM natrexone hydrochloride was defined as specific tissue binding.

mu-type opioid receptors = molecular target: T3, mu-type opioid receptors (Rattus norvegicus, UniProt P33535); experiment: displacement of [3H]CTOP in rat brain homogenate; type: binding; details: 25° C., read-out: IC50 (nM) ± S.E.E. [3H] CTOP
T3 construct: Whole brains with cerebellum removed were homogenized in 100 volumes of Tris-HCl buffer; from tissue; host or cells: rat brain (without cerebellum), washed homogenate
T3 sequence (P33535 whole entry): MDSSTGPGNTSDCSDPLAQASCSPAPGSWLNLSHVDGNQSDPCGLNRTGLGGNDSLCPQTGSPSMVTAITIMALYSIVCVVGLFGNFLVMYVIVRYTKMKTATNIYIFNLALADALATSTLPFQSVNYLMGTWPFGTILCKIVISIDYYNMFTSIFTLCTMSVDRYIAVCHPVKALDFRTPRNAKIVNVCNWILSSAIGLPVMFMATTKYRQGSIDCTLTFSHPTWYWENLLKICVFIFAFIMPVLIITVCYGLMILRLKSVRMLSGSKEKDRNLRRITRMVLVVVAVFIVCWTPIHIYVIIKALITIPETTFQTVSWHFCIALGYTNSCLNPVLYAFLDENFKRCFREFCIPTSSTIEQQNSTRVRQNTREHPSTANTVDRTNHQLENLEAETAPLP
Procedure: as §1, §2, §3

SMILES | IC50 [1] [nM] | IC50 [2] [nM] | IC50 [3] [nM] | IC50 (mu-type opioid receptors) [nM] | inh in GPI [1] [% inh] | RATIO (μ/δ), Table 1 ([2]; GPI IC50 / MVD IC50) | RATIO (μ/δ), Table 2 ([3]; [3H]CTOP IC50 / [3H]p-Cl-DPDPE IC50, rat brain)
CC1(C)SSC(C)(C)[C@@H](NC(=O)[C@@H](N)Cc2ccc(O)cc2)C(=O)N[C@@H](CO)C(=O)N[C@@H](Cc2ccccc2)C(=O)N[C@H]1C(=O)O [[L--Ser^3]DPDPE] (H-Y[dPen]SF[dPen]-OH; disulfide 2-5) | 39400 ± 7160 | 252 ± 32.5 | 42 ± 3 | > 22500 |  |  | 
C[C@@H]1NC(=O)[C@H](NC(=O)[C@@H](N)Cc2ccc(O)cc2)C(C)(C)SSC(C)(C)[C@H](C(=O)O)NC(=O)[C@H](Cc2ccc(Cl)cc2)NC1=O [[p-Cl--Phe^4 ]DPADPE] (H-Y[dPen]A[Phe(4-Cl)][dPen]-OH; disulfide 2-5) | 25500 ± 10300 | 1.94 ± 0.295 | 3.7 ± 0.9 | 1120 ± 260 |  |  | 
CC[C@@H]1NC(=O)[C@H](NC(=O)[C@@H](N)Cc2ccc(O)cc2)C(C)(C)SSC(C)(C)[C@H](C(=O)O)NC(=O)[C@H](Cc2ccccc2)NC1=O [[L--Abu^3]DPDPE] (H-Y[dPen][Abu]F[dPen]-OH; disulfide 2-5) | 4870 ± 345 | 84.9 ± 12.5 | 66.3 ± 30.4 | 12000 ± 938 |  |  | 
C[C@@H]1NC(=O)[C@H](NC(=O)[C@@H](N)Cc2ccc(O)cc2)C(C)(C)SSC(C)(C)[C@H](C(=O)O)NC(=O)[C@H](Cc2ccc(I)cc2)NC1=O [[p-I--Phe^4 ]DPADPE] (H-Y[dPen]A[Phe(4-I)][dPen]-OH; disulfide 2-5) | 30800 ± 1550 | 11 ± 1.23 | 12.5 ± 0.5 | 3670 ± 396 |  |  | 
CC1(C)SSC(C)(C)[C@@H](NC(=O)[C@@H](N)Cc2ccc(O)cc2)C(=O)NC2(CCCC2)C(=O)N[C@@H](Cc2ccccc2)C(=O)N[C@H]1C(=O)O [[AC5 C^3]DPDPE] (H-Y[dPen][Ac5c]F[dPen]-OH; disulfide 2-5) | 857 ± 31.7 | 370 ± 162 | 312 ± 39 | 1760 ± 45 |  |  | 
CC1(C)SSC(C)(C)[C@@H](NC(=O)[C@@H](N)Cc2ccc(O)cc2)C(=O)N[C@H](CO)C(=O)N[C@@H](Cc2ccccc2)C(=O)N[C@H]1C(=O)O [[D--Ser^3]DPDPE] (H-Y[dPen][dS]F[dPen]-OH; disulfide 2-5) |  | 1280 ± 245 | 764 ± 106 | > 50000 | 3 |  | 
C[C@H]1NC(=O)[C@H](NC(=O)[C@@H](N)Cc2ccc(O)cc2)C(C)(C)SSC(C)(C)[C@H](C(=O)O)NC(=O)[C@H](Cc2ccccc2)NC1=O [[D--Ala^3]DPDPE] (H-Y[dPen][dA]F[dPen]-OH; disulfide 2-5) | 33300 ± 817 | 572 ± 131 | 535 ± 58 | > 35000 |  |  | 
C[C@@H]1NC(=O)[C@H](NC(=O)[C@@H](N)Cc2ccc(O)cc2)C(C)(C)SSC(C)(C)[C@H](C(=O)O)NC(=O)[C@H](Cc2ccccc2)NC1=O [[L--Ala^3 ]DPDPE (DPADPE), L-Tyrosyl-D-penicillaminyl-L--alanyl-L-phenylalanyl-D-penicillaminyl cyclic (2-5) disulfide] (H-Y[dPen]AF[dPen]-OH; disulfide 2-5) | 121000 ± 81400 | 11.8 ± 1.62 | 18.4 ± 0.43 | 11000 ± 13 |  | 10,315 | 598
CC[C@H]1NC(=O)[C@H](NC(=O)[C@@H](N)Cc2ccc(O)cc2)C(C)(C)SSC(C)(C)[C@H](C(=O)O)NC(=O)[C@H](Cc2ccccc2)NC1=O [[D--Abu^3]DPDPE] (H-Y[dPen][dAbu]F[dPen]-OH; disulfide 2-5) | 29900 ± 2670 | 1950 ± 204 | 3380 ± 1070 | > 50000 |  |  | 
C[C@@H]1NC(=O)[C@H](NC(=O)[C@@H](N)Cc2ccc(O)cc2)C(C)(C)SSC(C)(C)[C@H](C(=O)O)NC(=O)[C@H](Cc2ccc(F)cc2)NC1=O [[p-F--Phe^4 ]DPADPE] (H-Y[dPen]A[Phe(4-F)][dPen]-OH; disulfide 2-5) | 4600 ± 1010 | 3.61 ± 0.367 | 0.55 ± 0.14 | 1460 ± 253 |  |  | 
C[C@@H]1NC(=O)[C@H](NC(=O)[C@@H](N)Cc2ccc(O)cc2)C(C)(C)SSC(C)(C)[C@H](C(=O)O)NC(=O)[C@H](Cc2ccc([N+](=O)[O-])cc2)NC1=O [[p-NO2 --Phe^4 ]DPADPE] (H-Y[dPen]A[Phe(4-NO2)][dPen]-OH; disulfide 2-5) | 13500 ± 1210 | 3.74 ± 0.356 | 3.5 ± 0.25 | 712 ± 3 |  |  | 
C[C@@H]1NC(=O)[C@H](NC(=O)[C@@H](N)Cc2ccc(O)cc2)C(C)(C)SSC(C)(C)[C@H](C(=O)O)NC(=O)[C@H](Cc2ccc(Br)cc2)NC1=O [[p-Br--Phe^4 ]DPADPE] (H-Y[dPen]A[Phe(4-Br)][dPen]-OH; disulfide 2-5) | 40800 ± 2950 | 2.95 ± 0.686 | 5.3 ± 0.86 | 2710 ± 453 |  |  | 
